Where two headings read alike, the source gives them in different places.
Tests used:
Cdk12/CycK and DDB1ΔB [1] = target: T1, Cdk12/CycK and DDB1ΔB (Homo sapiens, UniProt Q16531+Q9NYV4, DEL396-705); assay: GST pulldown assay, recruitment of DDB1ΔB to Cdk12/CycK; type: binding; conditions: GST-Cdk12/GST-CycK bait, 5 μM compound, vs DMSO
T1 construct: the Cdk12 (714–1063)/CycK (1–267) complex and the DDB1ΔB protein; made in house; host or cells: Sf9 insect cells (MultiBacTurbo)
Experimental: The pulldown assay was utilized to identify drug-triggered protein–protein interactions involving the Cdk12 (714–1063)/CycK (1–267) complex and the DDB1ΔB protein. In this assay, purified GST-tagged Cdk12 construct complexed with GST-CycK was combined with equimolar amounts of His6-tagged DDB1ΔB (5 μM) in the presence of 5 μM of the respective small molecular compound in pulldown assay buffer (50 mM Hepes pH 7.4, 200 mM NaCl, 0.25 mM TCEP, 0.05% (v/v) Tween20), ensuring a 2% total DMSO concentration. Experimental controls included samples supplemented with 2% DMSO instead of compound as well as samples devoid of the GST-tagged Cdk12/CycK complex. Each sample was individually added to approximately 50 μL of pre-equilibrated glutathione agarose beads (Thermo Fisher Scientific). The bead suspensions were then subjected to a 2 h incubation period at room temperature with gentle agitation. After incubation, the beads were pelleted by centrifugation at 700 × g for 4 min, the supernatant was discarded, and the beads were washed three-times with 100 μL of pulldown assay buffer. Following the washing step, bound proteins were eluted from the beads with 50 μL of pulldown assay buffer supplemented with 10 mM GSH for 1 h at room temperature under rotation. Subsequently, the beads were again pelleted by centrifugation at 700 × g for 4 min and the resulting supernatants containing eluted protein fractions were mixed with 6 × SDS sample buffer at a 1 : 1 (v/v) ratio. The eluted protein samples were separated by SDS-PAGE and subjected to Coomassie brilliant blue staining for visualization and analysis.

Cdk12/CycK and DDB1ΔB [2] = target: T1, Cdk12/CycK and DDB1ΔB; assay: Analytical size-exclusion chromatography of DDB1ΔB and Cdk12/CycK; type: binding; conditions: 20 μM proteins, 60 μM compound, vs DMSO and THZ531
Experimental: Analytical size-exclusion chromatography was employed to investigate compound-induced protein–protein interactions between the heterodimeric Cdk12 (714–1063)/CycK (1–267) complex and the RING E3 ligase-associated adaptor protein DDB1ΔB. The analysis was conducted on an Agilent 1260 Infinity II HPLC system (Agilent Technologies), coupled with a Superdex 200 Increase 3.2/300 column (Cytiva), pre-equilibrated in Cdk12 SEC buffer (20 mM Hepes pH 7.8, 400 mM NaCl, 1 mM TCEP) supplemented with 1 g L^−1 carboxymethyl-dextran. Purified proteins, combined in equimolar ratios (20 μM Cdk12/CycK and DDB1ΔB, respectively) were supplemented with 3-fold molar excess of small molecular compounds. The resulting protein mixtures were diluted to a final volume of 25 μL using the kinases SEC-buffer ensuring a final DMSO concentration of 2%, followed by an incubation period of 10 min. Upon injection into the analytical system, the chromatography was conducted at a controlled flow rate of 0.05 mL min^−1, with protein absorbance monitored at 280 nm wavelength. Peak fractions were collected drop by drop and subsequently subjected to analysis via dynamic light scattering (DLS) to assess their size distribution, along with SDS-PAGE analysis to determine the composition of the protein complex.

Cdk12/CycK and DDB1ΔB [3] = target: T1, Cdk12/CycK and DDB1ΔB; assay: Dynamic light scattering of SEC peak fractions; type: binding; conditions: SEC peak middle fractions, vs negative controls
Experimental: To evaluate particle size distribution in liquid solution, dynamic light scattering was employed. Specifically, 10 μL fractions from the central region of peaks obtained in analytical size exclusion chromatography runs were analyzed. This analysis was performed using a DynaPro NanoStar 672 (Wyatt Technology) in a disposable DLS MicroCuvette (Wyatt Technology), while maintaining a constant temperature of 25 °C. Each measurement was conducted with an acquisition time of 3 s, and each data point depicted in the Results section represents the average of 20 individual DLS measurements. The hydrodynamic radius of the protein samples was determined using the processing and analysis software DYNAMICS.

HiBiT-tagged cyclin K = assay: HiBiT cyclin K degradation assay (DC50, Dmax); type: cell-based; conditions: HiBiT-CCNK KI A549 cells, 2 hours, vs DMSO
Experimental: Next, we utilized HiBiT technology (Promega) for quantitative analysis of cyclin K degrader activity. […] Importantly, knockout of CDK12 using CRISPR/Cas9 protected cyclin K from SR-4835-induced degradation (Fig. 1D). We verified the depletion of CDK12 in HEK-293T cells (Fig. S3, ESI ^†).
The HiBiT-CCNK KI A549 cells (Promega) were seeded in 384 well plate and treated with the test compounds for 2 hours in a dose dependent manner. Nano-Glo® HiBiT Lytic Detection System (Promega) composed of the Nano-Glo® HiBiT Lytic Substrate, Nano-Glo® HiBiT Lytic Buffer and LgBiT Protein was used as per the manufacturer's instructions. Briefly, a 2× Nano-Glo® HiBiT Lytic Detection Reagent mixture was prepared by adding 20 μL of Nano-Glo® HiBiT Lytic Substrate and 10 μL of LgBiT protein per every 1 mL of Nano-Glo® HiBiT Lytic Buffer. After incubating the cells with the 2× Nano-Glo® HiBiT Lytic Detection Reagent mixture, luminescence was measured. HiBiT tagged cyclin K present at any given concentration was measured by normalizing the luminescence signal at that concentration to the luminescence signal from the DMSO (control) cells. The concentration necessary to achieve a 50% reduction in cyclin K levels (DC50) and the maximum achievable reduction in cyclin K levels (Dmax) was computed from this assay.

CDK12/cyclin K + DDB1 = target: T2, CDK12/cyclin K + DDB1 (Homo sapiens, UniProt Q16531+Q9NYV4, DEL396-705); assay: Microscale thermophoresis, ternary complex formation; type: binding; conditions: MST
T2 construct: The kinase domain of human CDK12 (Uniprot: Q9NYV4; a.a; 715–1050); GST (N, cleaved yes); made in house; host or cells: Spodoptera frugiperda SF9 insect cells (Bac-to-Bac); CDK12/cyclin K co-infected with S. cerevisiae CAK1
Experimental: Finally, the capacity of small molecules to induce a ternary complex between CDK12/cyclin K and DDB1 in vitro was assessed by microscale thermophoresis (MST). Labeled DDB1ΔBPB was combined with purified CDK12/cyclin K, and fluorescence intensity was monitored with increasing compound concentrations.
Cell pellets were harvested 48 hours post infection via centrifugation and lysed in buffer A (50 mM Tris–HCl (pH 8.0), 200 mM NaCl, 10 mM imidazole, 0.5 mM tris(2-carboxyethyl) phosphine (TCEP)) supplemented with EDTA-free Pierce™ protease inhibitor tablet (Thermo Fisher Scientific). […] The concentrated protein at 2 mg mL^−1 was flash-frozen in liquid nitrogen and stored at −80 °C.
Full-length S. cerevisiae CAK1 (Uniprot: P43568) with an N-terminal His6 tag was subcloned into pFastBac 1 vector. […] The eluted CDK12/cyclin K complex was concentrated to 2 mg mL^−1, flash-frozen in liquid nitrogen and stored at −80 °C.
A protocol to assess ternary binding of molecular glues with CDK12/cycK and DDB1 by MST was established using published procedures for PROTAC interaction with bromodomains and E3 ubiquitin ligases.[38] His8-DDB1-ΔBPB was labeled with the MO-L018 Monolith™ His-tag Labeling Kit RED-tris-NTA 2nd Generation (NanoTemper Technologies) following the instruction manual. 100 nM dye was mixed with 200 nM DDB1 in 50 mM HEPES pH 7.5, 150 mM NaCl, 5% glycerol, 0.05% Tween, and incubated at room temperature for 30 min. […] MST traces were recorded using standard parameters: 5 s MST power off, 30 s MST power on and 5 s MST power off. Measurements were taken at −1 to 0 s (cold region) and 9–10 s (hot region). Data were analyzed using a fitting function derived from the law of mass action:1 [drawing 6] where f(c) is the fluorescence signal (Fnorm) at a given ligand concentration (c), B is Fnorm of fully liganded DDB1 at high ligand concentrations, U is Fnorm of DDB1 alone at low ligand concentrations, Kd is the dissociation constant or binding affinity, cT is the final concentration of DDB1 in the assay (Fig. 3G). For normalization, the data were first transformed using eqn (2) where y is the fraction bound, followed by fitting to eqn (3) (Fig. 5B–E).2 [drawing 7] 3 [drawing 8]

CDK12 = CDK12 (Homo sapiens, UniProt Q9NYV4); assay: CDK12 functional (kinase inhibition) assay; type: biochemical; conditions: vs MR-1187
cyclin K = assay: Immunofluorescence of nuclear cyclin K in MDA-MB-231 cells; type: cell-based, human; conditions: MDA-MB-231 cells, 0.5 µM, 2 h
Experimental: Cells were fixed with 4% PFA in PBS at room temperature, permeabilized with 0.1% Triton X-100 in PBS, and blocked with 3% BSA in PBS at room temperature. Cells were incubated with primary antibodies overnight at 4 °C, followed by incubation with Alexa-Fluor conjugated secondary antibodies for 1 hour at room temperature. Cell nuclei were stained using DAPI. Images were acquired on a confocal microscope (Leica). ImageJ and QuPath were used for image analysis.
Figure S8. Immunofluorescence staining for cyclin K degradation. MDA-MB-231 cells were
treated for 2 h with either DMSO or the indicated compounds (0.5 µM) . Cells were fixed and
Nuclei were stained with DAPI (blue). […]

T2 sequence (Q16531 with tags, fused parts or gaps DEL396-705): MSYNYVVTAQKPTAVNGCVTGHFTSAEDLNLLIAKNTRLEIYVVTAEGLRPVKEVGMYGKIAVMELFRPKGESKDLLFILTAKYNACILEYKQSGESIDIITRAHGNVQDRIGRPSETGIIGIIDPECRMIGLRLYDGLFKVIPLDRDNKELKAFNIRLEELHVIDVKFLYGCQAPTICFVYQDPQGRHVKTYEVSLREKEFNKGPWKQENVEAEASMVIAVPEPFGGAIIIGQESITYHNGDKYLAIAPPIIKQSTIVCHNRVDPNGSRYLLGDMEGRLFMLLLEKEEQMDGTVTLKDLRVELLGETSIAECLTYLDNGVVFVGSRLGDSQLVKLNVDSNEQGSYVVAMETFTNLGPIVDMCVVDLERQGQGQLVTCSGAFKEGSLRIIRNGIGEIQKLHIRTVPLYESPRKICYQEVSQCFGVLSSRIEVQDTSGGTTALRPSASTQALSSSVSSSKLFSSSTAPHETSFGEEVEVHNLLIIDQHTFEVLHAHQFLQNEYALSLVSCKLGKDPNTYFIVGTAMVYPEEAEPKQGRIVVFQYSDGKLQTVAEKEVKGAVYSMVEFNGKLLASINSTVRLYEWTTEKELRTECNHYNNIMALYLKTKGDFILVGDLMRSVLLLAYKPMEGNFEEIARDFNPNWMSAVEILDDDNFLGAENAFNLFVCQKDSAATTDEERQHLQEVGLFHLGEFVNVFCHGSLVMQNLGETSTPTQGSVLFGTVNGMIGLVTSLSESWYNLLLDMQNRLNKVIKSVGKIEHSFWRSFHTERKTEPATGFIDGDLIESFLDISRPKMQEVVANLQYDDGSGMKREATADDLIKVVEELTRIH
T2 sequence (Q9NYV4 715-1050, stated change not applied): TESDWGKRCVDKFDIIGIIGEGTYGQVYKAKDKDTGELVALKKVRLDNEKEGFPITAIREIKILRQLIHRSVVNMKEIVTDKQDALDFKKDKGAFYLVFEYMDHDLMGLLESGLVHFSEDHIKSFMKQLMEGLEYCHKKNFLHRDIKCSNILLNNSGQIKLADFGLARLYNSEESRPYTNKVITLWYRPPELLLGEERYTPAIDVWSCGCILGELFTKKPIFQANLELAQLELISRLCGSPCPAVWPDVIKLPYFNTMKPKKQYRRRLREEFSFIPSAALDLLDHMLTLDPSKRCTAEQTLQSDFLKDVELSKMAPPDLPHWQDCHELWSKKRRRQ
T2 sequence (O75909 11-267 partner limits assumed): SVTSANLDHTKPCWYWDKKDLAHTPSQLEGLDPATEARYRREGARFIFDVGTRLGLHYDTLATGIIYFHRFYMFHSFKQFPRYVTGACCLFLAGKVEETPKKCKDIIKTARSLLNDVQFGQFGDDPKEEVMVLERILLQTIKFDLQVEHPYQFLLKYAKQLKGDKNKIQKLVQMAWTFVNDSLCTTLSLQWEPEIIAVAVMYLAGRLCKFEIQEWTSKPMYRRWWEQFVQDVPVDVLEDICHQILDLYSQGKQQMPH
T1 sequence (Q9NYV4 714-1063, stated change not applied): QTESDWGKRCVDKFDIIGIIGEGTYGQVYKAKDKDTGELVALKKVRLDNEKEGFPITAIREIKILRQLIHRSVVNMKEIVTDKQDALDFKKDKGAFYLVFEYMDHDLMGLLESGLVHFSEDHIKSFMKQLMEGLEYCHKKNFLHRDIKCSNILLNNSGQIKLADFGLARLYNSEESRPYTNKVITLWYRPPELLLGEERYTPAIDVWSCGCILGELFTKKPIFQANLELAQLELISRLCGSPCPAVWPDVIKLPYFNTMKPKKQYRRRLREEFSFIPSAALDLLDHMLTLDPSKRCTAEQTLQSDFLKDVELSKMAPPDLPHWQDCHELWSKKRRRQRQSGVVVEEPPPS
T1 sequence (O75909 1-267 partner limits assumed): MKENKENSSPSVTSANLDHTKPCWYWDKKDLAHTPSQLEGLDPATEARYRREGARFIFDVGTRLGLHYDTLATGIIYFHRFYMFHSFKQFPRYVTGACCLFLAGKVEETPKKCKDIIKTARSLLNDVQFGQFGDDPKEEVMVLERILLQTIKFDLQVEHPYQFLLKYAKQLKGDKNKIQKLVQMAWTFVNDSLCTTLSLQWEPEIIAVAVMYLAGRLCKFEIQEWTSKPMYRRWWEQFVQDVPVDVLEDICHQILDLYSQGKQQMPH
T1 sequence (Q16531 with tags, fused parts or gaps DEL396-705): as the sequence (Q16531 with tags, fused parts or gaps DEL396-705) above
Chain of CDK12 (Q9NYV4 whole entry): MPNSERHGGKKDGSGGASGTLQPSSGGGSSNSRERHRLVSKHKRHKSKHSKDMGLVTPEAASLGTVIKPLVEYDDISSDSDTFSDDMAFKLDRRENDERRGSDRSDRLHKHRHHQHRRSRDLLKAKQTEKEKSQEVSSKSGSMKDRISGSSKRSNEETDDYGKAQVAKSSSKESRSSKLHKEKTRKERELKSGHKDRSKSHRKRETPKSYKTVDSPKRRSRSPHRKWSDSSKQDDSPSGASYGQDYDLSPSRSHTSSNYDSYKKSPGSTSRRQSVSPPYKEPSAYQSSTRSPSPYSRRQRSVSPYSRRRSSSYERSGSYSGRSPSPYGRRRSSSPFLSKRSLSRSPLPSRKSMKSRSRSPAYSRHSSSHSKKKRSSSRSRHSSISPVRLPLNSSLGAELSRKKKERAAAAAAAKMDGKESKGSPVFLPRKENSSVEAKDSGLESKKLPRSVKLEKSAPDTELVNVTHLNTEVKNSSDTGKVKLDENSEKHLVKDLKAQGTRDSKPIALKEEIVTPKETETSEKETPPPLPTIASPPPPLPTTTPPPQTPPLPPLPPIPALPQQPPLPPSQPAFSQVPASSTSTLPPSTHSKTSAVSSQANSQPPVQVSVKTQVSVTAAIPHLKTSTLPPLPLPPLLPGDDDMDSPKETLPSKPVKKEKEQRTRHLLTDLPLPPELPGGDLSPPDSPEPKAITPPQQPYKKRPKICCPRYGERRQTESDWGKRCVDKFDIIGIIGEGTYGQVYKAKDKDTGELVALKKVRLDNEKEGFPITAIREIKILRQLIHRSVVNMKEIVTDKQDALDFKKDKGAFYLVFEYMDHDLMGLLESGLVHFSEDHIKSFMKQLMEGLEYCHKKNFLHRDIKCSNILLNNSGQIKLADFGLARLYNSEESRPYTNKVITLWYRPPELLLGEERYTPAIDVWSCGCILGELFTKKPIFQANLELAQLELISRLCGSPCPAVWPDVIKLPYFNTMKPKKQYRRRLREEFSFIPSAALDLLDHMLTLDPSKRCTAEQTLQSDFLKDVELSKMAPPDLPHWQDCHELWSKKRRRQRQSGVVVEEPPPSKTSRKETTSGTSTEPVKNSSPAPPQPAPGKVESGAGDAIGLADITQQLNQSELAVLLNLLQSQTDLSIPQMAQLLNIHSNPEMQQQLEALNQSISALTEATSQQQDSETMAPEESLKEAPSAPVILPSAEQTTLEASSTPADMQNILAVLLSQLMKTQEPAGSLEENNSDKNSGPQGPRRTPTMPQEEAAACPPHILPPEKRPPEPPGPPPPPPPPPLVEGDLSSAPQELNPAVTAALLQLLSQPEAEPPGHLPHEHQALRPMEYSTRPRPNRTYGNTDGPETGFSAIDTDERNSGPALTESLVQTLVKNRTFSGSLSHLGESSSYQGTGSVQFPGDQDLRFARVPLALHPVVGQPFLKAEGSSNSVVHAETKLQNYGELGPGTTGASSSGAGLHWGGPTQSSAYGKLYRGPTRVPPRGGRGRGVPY
Chain of CDK12 (O75909 whole entry partner): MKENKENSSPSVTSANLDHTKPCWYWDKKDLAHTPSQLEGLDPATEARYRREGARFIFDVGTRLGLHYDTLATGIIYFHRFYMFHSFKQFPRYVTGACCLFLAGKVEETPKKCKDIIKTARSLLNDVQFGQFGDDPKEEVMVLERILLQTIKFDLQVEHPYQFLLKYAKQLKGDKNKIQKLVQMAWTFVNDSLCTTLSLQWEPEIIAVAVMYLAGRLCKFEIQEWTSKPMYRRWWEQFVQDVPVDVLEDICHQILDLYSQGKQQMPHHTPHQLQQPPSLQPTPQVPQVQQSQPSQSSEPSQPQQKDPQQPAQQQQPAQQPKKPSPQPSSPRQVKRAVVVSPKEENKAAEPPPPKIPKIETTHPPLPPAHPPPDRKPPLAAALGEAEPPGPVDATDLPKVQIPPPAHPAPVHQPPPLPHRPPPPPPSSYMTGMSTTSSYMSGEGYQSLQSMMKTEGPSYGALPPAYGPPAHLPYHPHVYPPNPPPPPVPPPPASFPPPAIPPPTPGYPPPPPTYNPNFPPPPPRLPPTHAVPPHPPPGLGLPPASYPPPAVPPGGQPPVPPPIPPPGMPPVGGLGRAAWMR

Row | Structure (SMILES) | recruitment of DDB1ΔB in pulldown (Cdk12/CycK and DDB1ΔB [1]) | retention time in analytical SEC (ternary complex formation) (Cdk12/CycK and DDB1ΔB [2]) | hydrodynamic radius (DLS) (Cdk12/CycK and DDB1ΔB [3]) | Dmax (maximum reduction in cyclin K levels) (HiBiT-tagged cyclin K) [%] | Kd (CDK12/cyclin K + DDB1; labeled DDB1 + CDK12/cyclin K, run #1, read-out: Kd ternary complex formation, replicate #1) [nM] | Kd (CDK12/cyclin K + DDB1; labeled DDB1 + CDK12/cyclin K, run #2, read-out: Kd ternary complex formation, replicate #2) [nM] | Kd (CDK12/cyclin K + DDB1; labeled DDB1 + CDK12/cyclin K, run #3, read-out: Kd ternary complex formation, replicate #3) [nM] | Kd (CDK12/cyclin K + DDB1; labeled DDB1ΔBPB 10 nM + CDK12/cyclin K 1000 nM, mean of replicates, read-out: Kd ternary complex formation (average)) [nM] | fold better CDK12 kinase inhibition compared to MR-1187 (CDK12) [fold] | cyclin K nuclear intensity compared to control (cyclin K)
1 | CC[C@H](CO)Nc1nc(NCc2ccc(-c3ccccn3)cc2)c2ncn(C(C)C)c2n1 [CR8, reference compound] | enrichment of DDB1ΔB fractions | reduced retention times | significantly increased | – | – | – | – | – | – | –
2 | CCc1cnn2c(NCc3nc4cc(Cl)c(Cl)cc4[nH]3)cc(N3CCCC[C@H]3CCO)nc12 [MR-1226, (S)-2-(1-(7-(((5,6-Dichloro-1H-benzo[d]imidazol-2-yl)methyl)amino)-3-ethylpyrazolo[1,5-a]pyrimidin-5-yl)piperidin-2-yl)ethan-1-ol] | – | – | – | > 95 | 8.7 ± 2.7 | 10.3 ± 4 | 9.6 ± 3.3 | 9.5 | 35 | reduced

Reference: paper PMC11494886, “Discovery and design of molecular glue enhancers of CDK12–DDB1 interactions for targeted degradation of cyclin K” (RSC Chemical Biology, 2024)
